Assay results published in patent publication US20260207659A1, “COMPOSITIONS FOR USE IN THE PROPHYLACTIC TREATMENT OF HYPOCALCEMIA IN A RUMINANT ANIMAL” (VILOFOSS A/S, priority 2022, published 2026).
“And” between values parts separate entries of the source, which are not always exact repeats. Equal values may be shown once. Read-outs that look alike come from different tables or passages of the source.

Assay: In vitro phosphorus binding efficacy in rumen fluid, three phases mimicking the digestive tract of a ruminant (Thilsing et al.)
Design: species or system ruminant animal; Phosphate binding in comparison to control, % / P binding in comparison to control, %: concentration or dose not given beside the values
[1] = Table 1, from free phosphate, relative to Zeolite 4A
[2] = Table 1, from free phosphate, relative to untreated control
[3] = Table 2, phase 3 binding capacity, relative to Zeolite 4A
[4] = Table 2, phase 3 binding capacity, relative to control
[5] = phase 3 (after HCl and HCO3-, mimicking small intestine)
[6] = statement in words on Tables 1 and 2
[7] = supernatant of rumen fluid after addition of HCl and HCO3-, 0.06 g compound/8 ml rumen fluid

Phosphate binding in comparison to 4A, % [1] [%] | Phosphate binding in comparison to control, % [2] [%] | Phosphate binding in comparison to 4A, % [3] [%] | P binding in comparison to control, % [4] [%] | Phosphate Binding Capacity [5] | Phosphorus binding compared to other compounds, including Zeolite 4A alone [6] | Free Phosphate [7] [mmol] | Compound | Free Phosphate [mmol] | P binding in comparison to control, % [%] | Phosphate Binding Capacity | Phosphate binding in comparison to 4A, % | Phosphate binding in comparison to control, % [%] | Phosphorus binding compared to other compounds, including Zeolite 4A alone
– | – | – | – | – | – | – | O=S(=O)([O-])[O-].[Fe+2] [Iron (II) sulphate] | 8.2 | 75 | 69.3 mg Phosphate/gram of compound | 36.5% and 56% | 58.3 | superior
45.6 | 64.3 | 94 | 96 | 88.9 mg Phosphate/gram of compound | superior | 7.0 | [Cl][Al]([Cl])[Cl] [Aluminium chloride] | – | – | – | – | – | –
22.6 | 49.2 | 72 | 84 | 77.7 mg Phosphate/gram of compound | superior | 10.0 | O=C([O-])[O-].O=C([O-])[O-].O=C([O-])[O-].[La+3].[La+3] [Lanthanum carbonate, hydrated, reference compound] | – | – | – | – | – | –

Compound | Phosphate binding in comparison to 4A, % [1] [%] | Phosphate binding in comparison to control, % [2] [%] | Phosphate binding in comparison to 4A, % [3] [%] | P binding in comparison to control, % [4] [%] | Phosphate Binding Capacity [5] | Phosphorus binding compared to other compounds, including Zeolite 4A alone [6] | Free Phosphate [7] [mmol] | Free Phosphate [mmol] | P binding in comparison to control, % [%] | Phosphate Binding Capacity | Phosphate binding in comparison to 4A, % | Phosphate binding in comparison to control, % [%] | Phosphorus binding compared to other compounds, including Zeolite 4A alone
[Cl][La]([Cl])[Cl] [Lanthanum chloride] | 51.1 | 67.9 | 62 | 79 | 72.8 mg Phosphate/gram of compound | superior | 6.3 | – | – | – | – | – | –
